tested on: human papillomavirus 11; assay: Inhibition of the assembly of the (HPV11) Human Papillomavirus Type 11 E1E2 Origin DNA Complex; type: functional, organism-based

| SMILES | IC50 |
| --- | --- |
| O=C(Nc1ccc2c(c1)OCO2)[C@H]1[C@@H](c2ccc(Cl)c(Cl)c2)OC2(C(=O)c3ccccc3C2=O)[C@H]1C(=O)O | 0.35 µM |
| O=C(Nc1ccc2c(c1)OCO2)[C@H]1[C@@H](c2ccccc2Cl)OC2(C(=O)c3ccccc3C2=O)[C@H]1C(=O)O | > 80 µM |
| O=C1[C@H]2[C@H](c3ccc(Cl)cc3)OC3(C(=O)c4ccccc4C3=O)[C@H]2C(=O)N1c1ccc2c(c1)OCO2 | > 80 µM |
| O=C1C2C(c3ccc(Cl)cc3)OC3(C(=O)c4ccccc4C3=O)C2C(=O)N1c1ccc2c(c1)OCO2 (stereo not drawn) | 11 µM |
| O=C(Nc1ccc2c(c1)OCO2)[C@H]1[C@@H](c2ccccc2)OC2(C(=O)c3ccccc3C2=O)[C@H]1C(=O)O | 71 µM |

More lines, now with the values ahead:

| IC50 | SMILES |
| --- | --- |
| > 80 µM | O=C(Nc1ccc2c(c1)OCO2)[C@H]1C(c2ccc(Cl)cc2)OC2(C(=O)c3ccccc3C2=O)[C@H]1C(=O)O (stereo partly drawn) |
| 7.8 µM | O=C(Nc1ccc2c(c1)OCO2)[C@H]1[C@@H](c2ccc(Cl)cc2)OC2(C(=O)c3ccccc3C2=O)[C@H]1C(=O)O |
| 2.6 µM | O=C(Nc1ccc2c(c1)OCO2)[C@H]1[C@@H](c2cccc(Cl)c2)OC2(C(=O)c3ccccc3C2=O)[C@H]1C(=O)O |
